The experiment relates to bromodomain. The experiment is described as follows: at least one of the bromodomain cell assays of Example 57. The class given is cell-based. Conditions: at least one of the bromodomain cell assays described in Example 57; read-out: IC50 in at least one of the bromodomain cell assays.

Molecules are shown by their SMILES.

Data on 33 compounds can be found in patent publication US10519177B2, “Heterocyclic compounds and uses thereof” (Plexxikon Inc., priority 2013, dated 2019).

As a reminder, the IC50 is the concentration that inhibits the measured activity by half.

On to `Cc1noc(C)c1-c1cnc2c(-c3ccc(C(C)(C)C(=O)O)cc3)cn(CC3CCOCC3)c2c1` [P-0773, 2-[4-[6-(3,5-dimethylisoxazol-4-yl)-1-(tetrahydropyran-4-ylmethyl)pyrrolo[3,2-b]pyridin-3-yl]phenyl]-2-methyl-propanoic acid], for which the IC50 is less than 10 µM. For the compound `Cc1noc(C)c1-c1cnc2c(-c3ccc(C4(C(=O)O)CC4)cc3)cn(CC3(C)CCOCC3)c2c1` [P-0777, 1-[4-[6-(3,5-dimethylisoxazol-4-yl)-1-[(4-methyltetrahydropyran-4-yl)methyl]pyrrolo[3,2-b]pyridin-3-yl]phenyl]cyclopropanecarboxylic acid], the half-inhibitory concentration (IC50) was less than 10 µM. Consider `Cc1noc(C)c1-c1ccc2c(-c3ccc(C(=O)O)cc3)cn(CC3(C)CCCCC3)c2c1` [P-0779, 4-[6-(3,5-dimethylisoxazol-4-yl)-1-[(1-methylcyclohexyl)methyl]indol-3-yl]benzoic acid], for which the IC50 was less than 10 µM. For the compound `COc1cc(-c2cn(CC3(C)CCCCC3)c3cc(-c4c(C)noc4C)cnc23)ccc1C(=O)O` [P-0780, 4-[6-(3,5-dimethylisoxazol-4-yl)-1-[(1-methylcyclohexyl)methyl]pyrrolo[3,2-b]pyridin-3-yl]-2-methoxy-benzoic acid], the IC50 was less than 10 µM. In the case of `Cc1noc(C)c1-c1cnc2c(-c3ccc(CC(=O)O)cc3)cn(CC3(C)CCCCC3)c2c1` [P-0781, 2-[4-[6-(3,5-dimethylisoxazol-4-yl)-1-[(1-methylcyclohexyl)methyl]pyrrolo[3,2-b]pyridin-3-yl]phenyl]acetic acid], the IC50 is less than 10 µM. Then `Cc1noc(C)c1-c1cnc2c(-c3ccc(C4(C(=O)O)CC4)cc3)cn(CC3(C)CCCCC3)c2c1` [P-0782, 1-[4-[6-(3,5-dimethylisoxazol-4-yl)-1-[(1-methylcyclohexyl)methyl]pyrrolo[3,2-b]pyridin-3-yl]phenyl]cyclopropanecarboxylic acid], with less than 10 µM; and `Cc1noc(C)c1-c1cnc2c(-c3ccc(C(C)(C)C(=O)O)cc3)cn(CC3(C)CCCCC3)c2c1` [P-0783, 2-[4-[6-(3,5-dimethylisoxazol-4-yl)-1-[(1-methylcyclohexyl)methyl]pyrrolo[3,2-b]pyridin-3-yl]phenyl]-2-methyl propanoic acid], with less than 10 µM; and `[2H]C([2H])([2H])c1ccc(-c2cn(CC3CCCCC3)c3cc(-c4c(C)noc4C)cnc23)cc1` [P-0785, 4-[1-(cyclohexylmethyl)-3-[4-(trideuteriomethyl)phenyl]pyrrolo[3,2-b]pyridin-6-yl]-3,5-dimethyl-isoxazole], with less than 10 µM. To `[2H]C([2H])([2H])c1ccc(-c2cn([C@@H](c3ccccc3)c3ccccn3)c3cc(-c4c(C)noc4C)cnc23)cc1` [P-0786, 3,5-dimethyl-4-[1-[(S)-phenyl(2-pyridyl)methyl]-3-[4-(trideuteriomethyl)phenyl]pyrrolo[3,2-b]pyridin-6-yl]isoxazole] belongs less than 10 µM; to `[2H]C([2H])([2H])c1ccc(-c2cn([C@H](c3ccccc3)c3ccccn3)c3cc(-c4c(C)noc4C)cnc23)cc1` [P-0787, 3,5-dimethyl-4-[1-[(R)-phenyl(2-pyridyl)methyl]-3-[4-(trideuteriomethyl)phenyl]pyrrolo[3,2-b]pyridin-6-yl]isoxazole], less than 10 µM; to `Cc1ccc(-c2cn([C@@H](c3ccccc3)c3ccccn3)c3cc(-c4c(C)noc4C)ccc23)cc1` [P-0789, 3,5-dimethyl-4-[1-[(S)-phenyl(2-pyridyl)methyl]-3-(p-tolyl)indol-6-yl]isoxazole], less than 10 µM. On to `Cc1ccc(-c2cn([C@H](c3ccccc3)c3ccccn3)c3cc(-c4c(C)noc4C)ccc23)cc1` [P-0790, 3,5-dimethyl-4-[1-[(R)-phenyl(2-pyridyl)methyl]-3-(p-tolyl)indol-6-yl]isoxazole], for which the half-maximal inhibitory concentration (IC50) is less than 10 µM.

Turning to `Cc1ccc(-c2cn([C@@H](C)c3ccccn3)c3cc(-c4cc(C)c(=O)n(C)c4)cnc23)cc1` [P-0791, 1,3-dimethyl-5-[3-(p-tolyl)-1-[(1S)-1-(2-pyridyl)ethyl]pyrrolo[3,2-b]pyridin-6-yl]pyridin-2-one], the IC50 is less than 10 µM. `Cc1ccc(-c2cn(CC3(C)CCCCC3)c3cc(-c4c(C)noc4C)cnc23)cc1` [P-0792, 3,5-dimethyl-4-[1-[(1-methylcyclohexyl)methyl]-3-(p-tolyl)pyrrolo[3,2-b]pyridin-6-yl]isoxazole]: the IC50 is less than 10 µM.

With `Cc1ccc(-c2cn(CC3CCOCC3)c3cc(-c4c(C)noc4C)cnc23)cc1` [P-0793, 3,5-dimethyl-4-[3-(p-tolyl)-1-(tetrahydropyran-4-ylmethyl)pyrrolo[3,2-b]pyridin-6-yl]isoxazole], the IC50 was less than 10 µM.

`Cc1ccc(-c2cn(CC3CC4CC4C3)c3cc(-c4c(C)noc4C)cnc23)cc1` (stereo not drawn) [P-0795, 4-[1-(3-bicyclo[3.1.0]hexanylmethyl)-3-(p-tolyl)pyrrolo[3,2-b]pyridin-6-yl]-3,5-dimethyl-isoxazole]: the IC50 was less than 10 µM.

Regarding `Cc1noc(C)c1-c1cnc2c(-c3ccc4c(c3)COC4=O)cn(CC3CCC(F)(F)CC3)c2c1` [P-0796, 5-[1-[(4,4-difluorocyclohexyl)methyl]-6-(3,5-dimethylisoxazol-4-yl)pyrrolo[3,2-b]pyridin-3-yl]-3H-isobenzofuran-1-one], the IC50 is less than 10 µM. As to `Cc1noc(C)c1-c1cnc2c(-c3ccc4c(c3)COC4=O)cn(CC3CCCCC3)c2c1` [P-0797, 5-[1-(cyclohexylmethyl)-6-(3,5-dimethylisoxazol-4-yl)pyrrolo[3,2-b]pyridin-3-yl]-3H-isobenzofuran-1-one], the IC50 is less than 10 µM. `Cc1noc(C)c1-c1cnc2c(-c3ccc4c(c3)CCOC4=O)cn(CC3CCC(F)(F)CC3)c2c1` [P-0798, 6-[1-[(4,4-difluorocyclohexyl)methyl]-6-(3,5-dimethylisoxazol-4-yl)pyrrolo[3,2-b]pyridin-3-yl]isochroman-1-one]: the IC50 was less than 10 µM. Turning to `Cc1noc(C)c1-c1cnc2c(-c3ccc4c(c3)CCOC4=O)cn(CC3CCCCC3)c2c1` [P-0799, 6-[1-(cyclohexylmethyl)-6-(3,5-dimethylisoxazol-4-yl)pyrrolo[3,2-b]pyridin-3-yl]isochroman-1-one], the IC50 is less than 10 µM. Then `Cc1noc(C)c1-c1cnc2c(-c3ccc4c(c3)OC(=O)C4)cn(CC3CCC(F)(F)CC3)c2c1` [P-0800, 6-[1-[(4,4-difluorocyclohexyl)methyl]-6-(3,5-dimethylisoxazol-4-yl)pyrrolo[3,2-b]pyridin-3-yl]-3H-benzofuran-2-one], with less than 10 µM; and `Cc1noc(C)c1-c1cnc2c(-c3ccc4c(c3)OC(=O)C4)cn(CC3CCCCC3)c2c1` [P-0801, 6-[1-(cyclohexylmethyl)-6-(3,5-dimethylisoxazol-4-yl)pyrrolo[3,2-b]pyridin-3-yl]-3H-benzofuran-2-one], with less than 10 µM; and `Cc1noc(C)c1-c1cnc2c(-c3ccc(C(C)(C)C)cc3)cn(Cc3ccccn3)c2c1` [P-0804, 4-[3-(4-tert-butylphenyl)-1-(2-pyridylmethyl)pyrrolo[3,2-b]pyridin-6-yl]-3,5-dimethyl-isoxazole], with less than 10 µM. With `Cc1ccc(-c2cn(CC3(F)CCC(F)(F)CC3)c3cc(-c4c(C)nnn4C)cnc23)cc1` [P-0808, 6-(3,5-dimethyltriazol-4-yl)-3-(p-tolyl)-1-[(1,4,4-trifluorocyclohexyl)methyl]pyrrolo[3,2-b]pyridine], the IC50 was less than 10 µM.

`Cc1nnn(C)c1-c1cnc2c(-c3ccc(C(C)(C)C)cc3)cn(CC3(F)CCC(F)(F)CC3)c2c1` [P-0809, 3-(4-tert-butylphenyl)-6-(3,5-dimethyltriazol-4-yl)-1-[(1,4,4-trifluorocyclohexyl)methyl]pyrrolo[3,2-b]pyridine]: the 50% inhibitory concentration (IC50) was less than 10 µM. For the compound `Cc1nnn(C)c1-c1cnc2c(-c3ccc(C(C)(C)C)cc3)cn(CC3CCC(F)(F)CC3)c2c1` [P-0810, 3-(4-tert-butylphenyl)-1-[(4,4-difluorocyclohexyl)methyl]-6-(3,5-dimethyltriazol-4-yl)pyrrolo[3,2-b]pyridine], the IC50 is less than 10 µM. Consider `Cc1nnn(C)c1-c1cnc2c(-c3ccc(CC(=O)O)cc3)cn(CC3CCC(F)(F)CC3)c2c1` [P-0811, 2-[4-[1-[(4,4-difluorocyclohexyl)methyl]-6-(3,5-dimethyltriazol-4-yl)pyrrolo[3,2-b]pyridin-3-yl]phenyl]acetic acid], for which the IC50 was less than 10 µM. With `Cc1nnn(C)c1-c1cnc2c(-c3ccc(CC(=O)O)cc3)cn(CC3(F)CCC(F)(F)CC3)c2c1` [P-0812, 2-[4-[6-(3,5-dimethyltriazol-4-yl)-1-[(1,4,4-trifluorocyclohexyl)methyl]pyrrolo[3,2-b]pyridin-3-yl]phenyl]acetic acid], the IC50 was less than 10 µM. As to `Cc1noc(C)c1-c1cnc2c(-c3ccc(C(C)(C)C)cc3)cn([C@@H](c3ccccc3)c3ccccn3)c2c1` [P-0813, 4-[3-(4-tert-butylphenyl)-1-[(S)-phenyl(2-pyridyl)methyl]pyrrolo[3,2-b]pyridin-6-yl]-3,5-dimethyl-isoxazole], the IC50 was less than 10 µM. Take `Cc1noc(C)c1-c1cnc2c(-c3ccc(C(C)(C)C)cc3)cn([C@H](c3ccccc3)c3ccccn3)c2c1` [P-0814, 4-[3-(4-tert-butylphenyl)-1-[(R)-phenyl(2-pyridyl)methyl]pyrrolo[3,2-b]pyridin-6-yl]-3,5-dimethyl-isoxazole]: the IC50 was less than 10 µM. With `Cc1noc(C)c1-c1cnc2c(-c3ccc(C(=O)O)cc3)cn([C@H](c3ccccn3)C3CCCCC3)c2c1` [P-0815, 4-[1-[(S)-cyclohexyl(2-pyridyl)methyl]-6-(3,5-dimethylisoxazol-4-yl)pyrrolo[3,2-b]pyridin-3-yl]benzoic acid], the IC50 was less than 10 µM. On to `Cc1noc(C)c1-c1cnc2c(-c3ccc(C(=O)O)cc3)cn([C@@H](c3ccccn3)C3CCCCC3)c2c1` [P-0816, 4-[1-[(R)-cyclohexyl(2-pyridyl)methyl]-6-(3,5-dimethy7lisoxazol-4-yl)pyrrolo[3,2-b]pyridin-3-yl]benzoic acid], for which the IC50 is less than 10 µM. On to `Cc1ccc(-c2cn([C@@H](c3ccccn3)C3CCCCC3)c3cc(-c4c(C)noc4C)cnc23)cc1` [P-0817, 4-[1-[(R)-cyclohexyl(2-pyridyl)methyl]-3-(p-tolyl)pyrrolo[3,2-b]pyridin-6-yl]-3,5-dimethyl-isoxazole], for which the half-inhibitory concentration (IC50) is less than 10 µM.
